In assay [1] the target is T1, Tie2 receptor tyrosine kinase (Homo sapiens, UniProt Q02763).
T1 construct: consist of only the intracellular portion C-terminal portion of the respective receptor, within which is found the kinase domain; made in house; host or cells: baculovirus/Sf21 insect cells (cleared lysate used)
As to the kind of experiment: In vitro receptor tyrosine kinase inhibition assay (ELISA based, Test (a)). The format is biochemical. The following applies: recombinant human Tie2 kinase domain lysate, synthetic peptide substrate. As for the experimental part:
a. In Vitro Receptor Tyrosine Kinase Inhibition Assay
To test for inhibition of Tie2 receptor tyrosine kinase, compounds are evaluated in a non-cell based protein kinase assay by their ability to inhibit the protein kinase enzyme phosphorylation of a tyrosine containing polypeptide substrate in an ELISA based microtitre plate assay. In this particular case, the assay was to determine the IC50, for three different recombinant human tyrosine kinases Tie2, KDR and Flt.
To facilitate production of the tyrosine kinases, recombinant receptor genes were produced using standard molecular biology cloning and mutagenesis techniques. These recombinant proteins fragments encoded within these genes consist of only the intracellular portion C-terminal portion of the respective receptor, within which is found the kinase domain. The recombinant genes encoding the kinase domain containing fragments were cloned and expressed in standard baculovirus/Sf21 system (or alternative equivalent). […]
Constitutive kinase activity of these recombinant proteins was determined by their ability to phosphorylate a synthetic peptide (made up of a random co-polymer of Glutamic Acid, Alanine and Tyrosine in the ratio of 6:3:1). […]
The immobilised phospho-peptide product of the reaction was detected by immunological methods. […] Following extensive washing with PBS-T, HRP activity in each well of the plate was measured colorimetrically using 22′-Azino-di-[3-ethylbenzthiazoline sulfonate (6)] diammonium salt crystals ABTS (Sigma P4922-prepared as per manufactures instructions) as a substrate incubated for 30-45 minutes to allow colour development, before 100 ul of 1M H2SO4 was added to stop the reaction.
Quantification of colour development and thus enzyme activity was achieved by the measurement of absorbance at 405 nm on a Molecular Devices ThermoMax microplate reader. Kinase inhibition for a given compound was expressed as an IC50 value. […] The range of phosphorylation was calculated from the positive (vehicle plus ATP) and negative (vehicle minus ATP) control values.

Assay [2] concerns the target T2, Tie2 receptor (Homo sapiens, UniProt Q02763).
T2 construct: one can use natural cell lines or primary cells which are known to express the receptor of choice; endogenous in cells; host or cells: EA.hy926/B3 cells
Kind of assay: Cellular Tie2 autophosphorylation assay (Test (b)). The format is cell-based. The following applies: Ang1 ligand stimulated cellular Tie2 receptor, e.g. EA.hy926/B3 cells; read-out: IC50 Test (b): Inhibition of autophosphorylation of Tie2 receptor tyrosine kinase. The text has this:
b. Cellular Tie2 Autophosphorylation Assay
This assay is based on measuring the ability of compounds to inhibit autophosphorylation of the Tie2 receptor which normally leads to the production of “activated” receptor that in turn initiates the particular signal transduction pathways associated with the receptor function.
Autophosphorylation can be achieved by a number of means. It is known that expression of recombinant kinase domains in baculoviral systems can lead to the production of phosphorylated and activated receptor. It is also reported that over expression of receptors in recombinant cell lines can itself lead to receptor autophosphorylation in the absence of the ligand (Heldin C-H. 1995 Cell : 80, 213-223; Blume-J. P, Hunter T. 2001 Nature: 411, 355-65). Furthermore, there are numerous literature examples in which chimaeric receptors have been constructed. In these cases the natural, external cell surface domain of the receptor has been replaced with that of a domain which is known to be readily dimerised via the addition of the appropriate ligand (e.g. TrkA-Tie2/NGF ligand (Marron, M. B., et al., 2000 Journal of Biological Chemistry: 275:39741-39746) or C-fms-Tie-1/CSF-1 ligand (Kontos, C. D., et al., 2002 Molecular and Cellular Biology: 22, 1704-1713). Thus when the chimaeric receptor expressed in a host cell line and the respective ligand is added, this induces autophosphorylation of the chimeric receptor's kinase domain. This approach has the advantage of often allowing a known (and often easily obtained) ligand to be used instead of having to identify and isolate the natural ligand for each receptor of interest.
Naturally if the ligand is available one can use natural cell lines or primary cells which are known to express the receptor of choice and simply stimulate with ligand to achieve ligand induced phosphorylation. […]

T2 sequence (Q02763 23-1124): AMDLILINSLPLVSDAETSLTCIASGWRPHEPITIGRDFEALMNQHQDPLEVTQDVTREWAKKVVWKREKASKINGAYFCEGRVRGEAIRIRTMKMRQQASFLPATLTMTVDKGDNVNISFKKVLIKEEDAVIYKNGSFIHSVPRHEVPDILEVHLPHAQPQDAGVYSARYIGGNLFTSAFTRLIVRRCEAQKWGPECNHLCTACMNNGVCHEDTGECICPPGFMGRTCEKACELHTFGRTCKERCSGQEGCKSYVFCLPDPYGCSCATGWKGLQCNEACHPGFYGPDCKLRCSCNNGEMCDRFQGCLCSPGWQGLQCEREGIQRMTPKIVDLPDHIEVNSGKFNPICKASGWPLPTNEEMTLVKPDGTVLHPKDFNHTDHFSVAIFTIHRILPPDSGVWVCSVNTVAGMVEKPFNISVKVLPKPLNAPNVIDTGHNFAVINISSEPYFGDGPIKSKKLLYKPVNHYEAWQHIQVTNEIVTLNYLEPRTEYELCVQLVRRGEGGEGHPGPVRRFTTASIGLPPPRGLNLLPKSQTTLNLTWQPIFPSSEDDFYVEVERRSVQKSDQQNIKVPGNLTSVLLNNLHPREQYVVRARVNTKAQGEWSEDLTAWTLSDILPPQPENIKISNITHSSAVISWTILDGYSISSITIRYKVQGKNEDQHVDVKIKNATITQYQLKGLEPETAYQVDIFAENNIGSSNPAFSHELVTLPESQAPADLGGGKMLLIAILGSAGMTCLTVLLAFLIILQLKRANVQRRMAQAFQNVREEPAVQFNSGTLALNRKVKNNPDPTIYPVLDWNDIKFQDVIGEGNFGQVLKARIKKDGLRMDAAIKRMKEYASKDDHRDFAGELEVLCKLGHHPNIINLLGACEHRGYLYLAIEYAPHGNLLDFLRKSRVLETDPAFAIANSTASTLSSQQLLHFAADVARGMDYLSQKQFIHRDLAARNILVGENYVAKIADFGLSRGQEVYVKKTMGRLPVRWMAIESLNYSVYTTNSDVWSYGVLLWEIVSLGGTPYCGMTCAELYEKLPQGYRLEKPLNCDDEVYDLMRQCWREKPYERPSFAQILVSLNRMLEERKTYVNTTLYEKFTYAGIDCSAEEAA
T1 sequence (Q02763 770-1124 limits assumed): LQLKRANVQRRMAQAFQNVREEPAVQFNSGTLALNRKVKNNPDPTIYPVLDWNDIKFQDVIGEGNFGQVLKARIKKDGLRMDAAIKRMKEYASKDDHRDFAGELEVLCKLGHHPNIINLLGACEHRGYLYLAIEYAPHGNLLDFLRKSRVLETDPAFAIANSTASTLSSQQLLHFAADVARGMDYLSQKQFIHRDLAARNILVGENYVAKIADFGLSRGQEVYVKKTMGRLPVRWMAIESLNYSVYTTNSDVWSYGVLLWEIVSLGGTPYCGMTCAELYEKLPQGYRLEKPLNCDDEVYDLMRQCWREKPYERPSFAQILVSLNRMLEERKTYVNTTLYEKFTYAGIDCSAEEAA

As to `CC(C)(C)c1nnc(NC(=O)Nc2ccc(C#Cc3c(N)ncnc3N)cc2)s1` [Example 11, N-(5-tert-butyl-1,3,4-thiadiazol-2-yl)-N′-{4-[(4,6-diaminopyrimidin-5-yl)ethynyl]phenyl}urea], the IC50 in assay [1] was 0.879 µM; in assay [2], 5.56 µM.

For `Cc1cc(NC(=O)Nc2ccc(C#Cc3c(N)ncnc3N)cc2)sn1` [Example 12, N-{4-[(4,6-diaminopyrimidin-5-yl)ethynyl]phenyl}-N′-(3-methylisothiazol-5-yl)urea], the IC50 in assay [1] worked out at 2.85 µM; in assay [2], 0.351 µM.

For the compound `Cc1cc(NC(=O)Nc2cccc(C#Cc3c(N)ncnc3N)c2)on1` [Example 19, N-{3-[(4,6-diaminopyrimidin-5-yl)ethynyl]phenyl}-N′-(3-methylsoxazol-5-yl)urea], the IC50 in assay [1] came to 2.14 µM; in assay [2] it was 3.54 µM.
